The numbers were not newly measured in patent publication US20080226719A1, “Combination of Rosiglitazone and Donepezil for Improvement of Cognitive Function” (priority 2005, published 2008), which cites them from elsewhere.

The structures appear in SMILES notation. Where two headings read alike, the source gives them in different places.

In data set [1] the test system is individuals with mild cognitive impairment. The settings on record: cited from earlier work; for rate at which patients developed AD: mild cognitive impairment.
For another data set, the system named is patients with AD. The settings on record: cited from earlier work.

As for `COc1cc2c(cc1OC)C(=O)C(CC1CCN(Cc3ccccc3)CC1)C2` (centres unmarked) [donepezil], the “risk of progressing to AD compared to placebo” value in data set [1] (carriers of one or two copies of an APOE4 allele, after three years) is on record as “reduced risk of progressing to AD”. Also, the “rate at which patients developed AD” value in data set [1] (at three years, versus placebo) is on record as “no separation between groups”; in data set [1] (first twelve months of administration) it was “reduce the rate at which patients developed AD”.
`Nc1c2c(nc3ccccc13)CCCC2` [tacrine]: the “patients unchanged or worse” value with patients with AD (APOE4 carriers with AD, after 30 weeks) is 60%. The “patients showing an improvement in cognitive function” value with patients with AD (non-APOE4 carriers with AD) is listed as 83%.
